Structures are written as SMILES.

Assay [1] has as its target T1, hP2X2/3H (Homo sapiens, UniProt P56373+Q9UBL9).
T1 construct: expressed in transfected cells
T1 sequence (P56373 1-397): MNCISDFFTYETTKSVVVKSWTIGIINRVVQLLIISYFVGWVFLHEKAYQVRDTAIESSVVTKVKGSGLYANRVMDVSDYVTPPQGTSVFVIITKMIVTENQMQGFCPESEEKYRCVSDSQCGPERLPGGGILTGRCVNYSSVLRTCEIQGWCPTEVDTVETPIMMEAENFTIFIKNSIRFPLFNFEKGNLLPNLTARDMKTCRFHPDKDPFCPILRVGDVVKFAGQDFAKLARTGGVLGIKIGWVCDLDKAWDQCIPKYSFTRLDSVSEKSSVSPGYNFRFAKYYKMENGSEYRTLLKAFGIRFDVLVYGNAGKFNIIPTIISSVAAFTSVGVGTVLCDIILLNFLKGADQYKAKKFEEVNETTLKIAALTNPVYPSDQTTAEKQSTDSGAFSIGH
T1 sequence (Q9UBL9 1-471): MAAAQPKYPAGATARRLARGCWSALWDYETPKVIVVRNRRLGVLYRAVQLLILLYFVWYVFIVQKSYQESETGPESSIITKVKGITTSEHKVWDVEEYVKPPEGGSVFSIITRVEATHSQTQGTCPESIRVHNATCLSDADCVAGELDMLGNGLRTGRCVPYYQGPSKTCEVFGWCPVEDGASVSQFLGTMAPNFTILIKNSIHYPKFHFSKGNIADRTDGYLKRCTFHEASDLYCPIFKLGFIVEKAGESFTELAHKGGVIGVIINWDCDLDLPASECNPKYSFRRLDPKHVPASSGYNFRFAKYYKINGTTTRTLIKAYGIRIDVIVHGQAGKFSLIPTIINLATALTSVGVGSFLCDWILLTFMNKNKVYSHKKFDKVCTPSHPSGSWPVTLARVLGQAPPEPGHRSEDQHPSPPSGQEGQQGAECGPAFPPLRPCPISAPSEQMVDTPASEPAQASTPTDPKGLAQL
The experiment in a line: Calcium uptake assay (Ca influx), P2X antagonist assay, P2X2/3 heteromer. In kind it is cell-based. To be noted: inhibition of agonist-induced calcium influx. From the text: (§1) Human P2X3 (Accession no. NM_002559), P2X2 (Accession no. NM_170682) and Rat P2X3 (Accession no. NM_031075) and P2X2 (Accession no. NM_053656) are cloned into a mammalian expression vector (e.g., pcDNAS/TO or pcDNA3 Invitrogen). The human P2X2/3 chimera clone is created as described by Neelands et al, and then cloned into an expression vector as above. Receptors are expressed in cells (e.g., HEK293 or 1321N1 (obtained from the ECACC)) via transient transfection using standard lipid mediated transfection, or by creation of stable transfectants for each receptor. For expression of the P2X2/3 heteromeric receptor, the P2X3 expression vector is stably transfected into a cell line already stably expressing P2X2. P2X2/3 heteromer function is isolated using pharmacological methods. Cell lines are maintained in DMEM+5% Glutamax, the appropriate level of selective antibiotic, and 10% heat inactivated FBS.
(§2) Functional activity of compounds at the P2X receptor is determined by measuring their ability to inhibit agonist-induced calcium influx. Compounds are tested for antagonist activity against the P2X2/3 chimera, the P2X3 homomer, or the P2X2/3 heteromer. At the start of each screening day, the agonist EC50 is determined. Compound % inhibition or IC50s are subsequently determined using a predetermined agonist concentration (EC50-90 depending on cell line) as a stimulus. The agonists used are αβMeATP, ATP, or other ATP analogs. Compounds may be tested at concentrations ranging from 1 pM to 10 μM.
(§3) To test for antagonist activity, cells expressing the appropriate receptor are seeded onto 96 or 384 well plates 18-24 hours prior to assay. On the day of the assay, cells are loaded with calcium-sensitive fluorescent dye (e.g., Fluo-4 no wash reagent-Invitrogen cat#F36206, or the BD™ PBX Calcium Assay Kit-BD cat #640175) in Hank's Buffered Salt Solution (HBSS) with up to 10 mM supplemental CaCl2. Plates are incubated at 37° C. and then equilibrated at room temperature. Antagonism of agonist-induced calcium influx is measured using a fluorescent imaging plate reader (e.g. FLIPR^TETRA, Molecular Devices, Sunnyvale, Calif.). The assay comprises two stages: a pre-treatment phase followed by a treatment phase. Compounds may be tested as follows: For the pre-treatment phase, 50 μL of 3× concentration of test compound in HBSS is added to cells containing 100 μL of dye loading media to achieve a final concentration of 1× test compound. For the treatment phase, at a set interval after pre-treatment (1-30 minutes), 50 μL of 1× test compound plus 4× agonist solution is added, resulting in a final concentration of 1× compound and 1× agonist. Fluorescence is measured at 0.1-3 second intervals—with an excitation wavelength of 494 nm and an emission wavelength of 515 nm. Responses are measured as (peak fluorescence after agonist addition) minus (baseline fluorescence prior to treatment). Percent inhibition is calculated as follows:
(§4) [formula] IC50 values are determined by analyzing dose response data in a 4 parameter logistic fit using GraphPad Prizm.
(§5) The following compounds have been or can be prepared according to the synthetic methods described herein. A calcium uptake assay was performed as described above and the activity of each compound is expressed as follows: […]

The target of assay [2] is T2, hP2X3 (Homo sapiens, UniProt P56373).
T2 construct: expressed in transfected cells
T2 sequence (P56373 1-397): T1 sequence (P56373 1-397)
The experiment in a line: Calcium uptake assay (Ca influx), P2X antagonist assay, P2X3 homomer. The following applies: inhibition of agonist-induced calcium influx. The assay is classed as cell-based.
Text: as §1, §2, §3, §4, §5

Usually IC50 stands for the midpoint of a concentration-inhibition curve. In the case of `Cc1ccc(-c2cc(C(=O)NCc3ccc(C)nc3)cc(-c3ccccc3F)c2)cc1` [Compound 6, 2″-Fluoro-4-methyl-[1,1′;3′,1″]terphenyl-5′-carboxylic acid (6-methyl-pyridin-3-ylmethyl)-amide], the values for the half-maximal inhibitory concentration (IC50) in assay [1] and in assay [2] were 418 nM and 342 nM, respectively.
For the compound `Cc1ccc(-c2cc(C(=O)NCc3cnc(C)nc3)cc(-c3ccc(C)cn3)c2)nc1` [Compound 29, 3,5-Bis-(5-methyl-pyridin-2-yl)-N-(2-methyl-pyrimidin-5-ylmethyl)-benzamide], the IC50 in assay [1] turned out to be 219 nM; in assay [2] it was 25.8 nM.
Regarding `COCC(CO)NC(=O)c1cc(-c2ccc(C)cn2)cc(-c2cccc(F)c2F)c1` (centres unmarked) [Compound 78, 2′,3′-Difluoro-5-(5-methyl-pyridin-2-yl)-biphenyl-3-carboxylic acid (2-hydroxy-1-methoxymethyl-ethyl)-amide], the IC50 was 7170 nM in assay [1] and 221 nM in assay [2].
The like results for `Cc1ccc(-c2cc(C(=O)NCc3ccc(C)nc3)cc(-c3ccncc3)c2)cc1` [Compound 22, 4′-Methyl-5-pyridin-4-yl-biphenyl-3-carboxylic acid (6-methyl-pyridin-3-ylmethyl)-amide] were, in that order, 143 nM and 191 nM.
Regarding `COc1cccc(-c2cc(C(=O)NCc3ccc(C)nc3)cc(-c3ccc(C)cc3)c2)c1` [Compound 11, 3″-Methoxy-4-methyl-[1,1′;3′,1″]terphenyl-5′-carboxylic acid (6-methyl-pyridin-3-ylmethyl)-amide], the IC50 in assay [1] is 1060 nM; in assay [2] it was 485 nM.
Take `COc1ccc(-c2cc(C(=O)NCc3ccc(C)nc3)cc(-c3ccc(C)cc3)c2)c(OC)c1` [Compound 9, 2″,4″-Dimethoxy-4-methyl-[1,1′;3′,1″]terphenyl-5′-carboxylic acid (6-methyl-pyridin-3-ylmethyl)-amide]: the IC50 in assay [1] is 415 nM; in assay [2], 484 nM.
In the case of `Cc1ccc(-c2cc(C(=O)N[C@H](C)c3ccc(C)nc3)cc(N3CCCC3=O)c2)cc1` [Compound 51, 4′-Methyl-5-(2-oxo-pyrrolidin-1-yl)-biphenyl-3-carboxylic acid [(R)-1-(6-methyl-pyridin-3-yl)-ethyl]-amide], the IC50 in assay [1] was determined as 37 nM; in assay [2], 23.8 nM.
For the compound `COc1ccc(-c2cc(C(=O)NCc3ccc(C)nc3)cc(-c3ccc(C)cc3)c2)cc1OC` [Compound 10, 3″,4″-Dimethoxy-4-methyl-[1,1′;3′,1″]terphenyl-5′-carboxylic acid (6-methyl-pyridin-3-ylmethyl)-amide], the IC50 is 1270 nM in assay [1] and 759 nM in assay [2].
Turning to `Cc1ccc(-c2cc(C(=O)NCc3ccc(C)nc3)cc(-c3ccccc3)c2)nc1` [Compound 21, 5-(5-Methyl-pyridin-2-yl)-biphenyl-3-carboxylic acid (6-methyl-pyridin-3-ylmethyl)-amide], the IC50 in assay [1] turned out to be 914 nM; in assay [2], 192 nM.
In the case of `COc1ncc(-c2cc(C(=O)NCc3ccc(C)nc3)cc(-c3ccc(C)cc3)c2)cn1` [Compound 12, 5-(2-Methoxy-pyrimidin-5-yl)-4′-methyl-biphenyl-3-carboxylic acid (6-methyl-pyridin-3-ylmethyl)-amide], the IC50 in assay [1] was found to be 291 nM; in assay [2], 292 nM.
Take `Cc1ccc(-c2cc(C(=O)N[C@H](C)c3cnc(C)nc3)cc(N3CCCC3=O)c2)nc1` [Compound 58, (R)-3-(5-Methylpyridin-2-yl)-N-(1-(2-methylpyrimidin-5-yl)ethyl)-5-(2-oxopyrrolidin-1-yl)benzamide]: the IC50 in assay [1] is 194 nM; in assay [2], 35.3 nM.
Take `Cc1ccc(-c2cc(C(=O)N[C@@H](C)CO)cc(-c3ncccc3C(F)(F)F)c2)nc1` [Compound 81, N-((S)-2-Hydroxy-1-methyl-ethyl)-3-(5-methyl-pyridin-2-yl)-5-(3-trifluoromethyl-pyridin-2-yl)-benzamide]: the IC50 in assay [1] was 1220 nM; in assay [2], 48.7 nM.
For `Cc1ccc(-c2cc(C(=O)N[C@H](C)CN3CCOCC3)cc(-c3c(F)cccc3C(F)(F)F)c2)nc1` [Compound 83, 2′-Fluoro-5-(5-methyl-pyridin-2-yl)-6′-trifluoromethyl-biphenyl-3-carboxylic acid ((R)-1-methyl-2-morpholin-4-yl-ethyl)-amide], the IC50 in assay [1] was found to be 26 nM; in assay [2] it was 72.1 nM.
For the compound `Cc1ccc(-c2cc(C(=O)NCc3ccc(C)nc3)cc(-c3ccc(F)cc3F)c2)cc1` [Compound 5, 2″,4″-Difluoro-4-methyl-[1,1′;3′,1″]terphenyl-5′-carboxylic acid (6-methyl-pyridin-3-ylmethyl)-amide], the results for the IC50 in assay [1] and in assay [2] were 8310 nM and 1960 nM, respectively.
Consider `Cc1ccc(-c2cc(C(=O)NCc3ccc(C)nc3)cc(-c3ccc(CO)cc3)c2)cc1` [Compound 26, 4″-Hydroxymethyl-4-methyl-[1,1′;3′,1″]terphenyl-5′-carboxylic acid (6-methyl-pyridin-3-ylmethyl)-amide], for which the IC50 was found to be 503 nM in assay [1] and 309 nM in assay [2].
Take `COCc1ccccc1-c1cc(C(=O)N[C@H](C)c2cnc(C)nc2)cc(-c2ccccn2)c1` [Compound 53, 2′-Methoxymethyl-5-pyridin-2-yl-biphenyl-3-carboxylic acid [(R)-1-(2-methyl-pyrimidin-5-yl)-ethyl]-amide]: the IC50 is 295 nM in assay [1] and 62.6 nM in assay [2].
For `COCc1ccccc1-c1cc(C(=O)N[C@H](C)c2cnc(C)nc2)cc(-c2ccc(C)cn2)c1` [Compound 45, 2′-Methoxymethyl-5-(5-methyl-pyridin-2-yl)-biphenyl-3-carboxylic acid [(R)-1-(2-methyl-pyrimidin-5-yl)-ethyl]-amide], the concentration for half-maximal inhibition (IC50) is 13.4 nM in assay [1] and 14.6 nM in assay [2].
Taken in the same sequence, the figures for `Cc1ccc(-c2cc(C(=O)N[C@H](C)c3cnc(C)nc3)cc(-c3cccc(F)c3F)c2)nc1` [Compound 36, 2′,3′-Difluoro-5-(5-methyl-pyridin-2-yl)-biphenyl-3-carboxylic acid [(R)-1-(2-methyl-pyrimidin-5-yl)-ethyl]-amide] were 32.8 nM and 65.4 nM.
As to `Cc1ccc(-c2cc(C(=O)N[C@H](C)c3cnc(C)nc3)cc(N3CCCCC3=O)c2)nc1` [Compound 56, 3-(5-Methyl-pyridin-2-yl)-N-[(R)-1-(2-methyl-pyrimidin-5-yl)-ethyl]-5-(2-oxo-piperidin-1-yl)-benzamide], the IC50 in assay [1] was 418 nM; in assay [2] it was 95.9 nM.

Values taken from patent US9133122B2, “Amide compounds, compositions and uses thereof” (EVOTEC AG, priority 2008, dated 2015).
